According to US20240360178A1, “MACROCYCLIC IMMUNOMODULATORS” (Bristol-Myers Squibb Company, priority 2021, published 2024):
Positions of bridges follow the written chain, without caps; N, C: chain ends. Non-standard residues stand in square brackets, D forms with d. Residues, ends and D or L forms follow the SMILES beside them. Ala(indol-4-yl) = N[C@@H](Cc1cccc2[nH]ccc12)C(=O)O; Tyr(3,5-Br2) = N[C@@H](Cc1cc(Br)c(O)c(Br)c1)C(=O)O; Bip(2'-Me) = Cc1ccccc1-c1ccc(C[C@H](N)C(=O)O)cc1; Bip = N[C@@H](Cc1ccc(-c2ccccc2)cc1)C(=O)O; 1Nal = N[C@@H](Cc1cccc2ccccc12)C(=O)O; d(cisHyp) = O=C(O)[C@H]1C[C@@H](O)CN1; NMeF = CN[C@@H](Cc1ccccc1)C(=O)O; 3Pal = N[C@@H](Cc1cccnc1)C(=O)O; Cha = N[C@@H](CC1CCCCC1)C(=O)O; NMeA = CN[C@@H](C)C(=O)O; Nle = CCCC[C@H](N)C(=O)O; Sar = CNCC(=O)O

Target: T1, human PD-1 (Jurkat-PD-1 cells) / PE-labeled human PD-L1-Ig (Homo sapiens, UniProt Q15116)
T1 construct: expressed in transfected cells; host or cells: Jurkat cell line over-expressing human PD-1
T1 sequence (Q15116 25-288): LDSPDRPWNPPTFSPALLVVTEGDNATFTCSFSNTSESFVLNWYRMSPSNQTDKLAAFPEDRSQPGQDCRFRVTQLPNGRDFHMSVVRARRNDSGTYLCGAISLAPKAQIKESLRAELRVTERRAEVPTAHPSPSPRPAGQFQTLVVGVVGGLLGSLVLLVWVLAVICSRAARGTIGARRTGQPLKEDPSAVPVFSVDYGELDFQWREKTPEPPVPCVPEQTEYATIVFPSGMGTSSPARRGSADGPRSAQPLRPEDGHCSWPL
Assay: Jurkat-PD-1 Cell Binding High-Content Screening Assay (CBA); Jurkat hPD1-PDL1 assay
Details: Jurkat cell line over-expressing human PD-1; PE-labeled PD-L1-Ig 20 nM final; compound incubated 2 hours at 37° C.; read-out: Jurkat HPD1-PDL1 IC50
Method in brief: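 Read-out is high-content imaging of PE fluorescence on PD-1-over-expressing Jurkat cells. Cells are first exposed to compound for 2 hours at 37° C in serum-containing DMEM, after which PE-labeled PD-L1-Ig is added at 20 nM final.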

IC50	Compound
350 nM	CC(C)C[C@@H]1NC(=O)[C@H](CC(N)=O)NC(=O)CN(C)C(=O)[C@H](C)N(C)C(=O)[C@H](C(C)C)NC(=O)[C@H](Cc2ccc(-c3ccccc3)cc2)NC(=O)[C@H](CC(C)C)NC(=O)[C@H](Cc2c[nH]c3ccccc23)NC(=O)[C@H](CC(=O)O)NC(=O)[C@H](Cc2ccc(O)cc2)NC(=O)[C@H](Cc2ccccc2)NC(=O)CSC[C@@H](C(=O)NCC(N)=O)NC(=O)[C@H](CO)NC(=O)[C@H](C)NC1=O [Example 1111] ({CH2CO}-FYDWL[Bip]V[NMeA][Sar]NLASCG-NH2; thioether N-14)
370 nM	CC(C)C[C@@H]1NC(=O)[C@H](CC(N)=O)NC(=O)[C@H](Cc2ccccc2)N(C)C(=O)[C@H](C)N(C)C(=O)[C@H](C(C)C)NC(=O)[C@H](Cc2ccc(-c3ccccc3)cc2)NC(=O)[C@H](C(C)C)NC(=O)[C@H](Cc2c[nH]c3ccccc23)NC(=O)[C@H](CC(=O)O)NC(=O)[C@H](Cc2ccc(O)cc2)NC(=O)[C@H](Cc2ccccc2)NC(=O)CSC[C@@H](C(=O)N[C@@H](C)C(N)=O)NC(=O)[C@H](CO)NC(=O)[C@H](C(C)C)NC1=O [Example 1112] ({CH2CO}-FYDWV[Bip]V[NMeA][NMeF]NLVSCA-NH2; thioether N-14)
370 nM	CC(C)C[C@@H]1NC(=O)[C@H](Cc2c[nH]c3ccccc23)NC(=O)[C@H](CC(=O)O)NC(=O)[C@H](Cc2cc(Br)c(O)c(Br)c2)NC(=O)[C@H](Cc2ccccc2)NC(=O)CSC[C@@H](C(=O)N[C@@H](C)C(N)=O)NC(=O)[C@H](CO)NC(=O)[C@H](C(C)C)NC(=O)[C@H](CC(C)C)NC(=O)[C@H](CC(N)=O)NC(=O)CN(C)C(=O)[C@H](C)N(C)C(=O)[C@H](C(C)C)NC(=O)[C@H](Cc2ccc(-c3ccccc3)cc2)NC1=O [Example 1113] ({CH2CO}-F[Tyr(3,5-Br2)]DWL[Bip]V[NMeA][Sar]NLVSCA-NH2; thioether N-14)
400 nM	CC(C)C[C@@H]1NC(=O)[C@H](CCCNC(=N)N)NC(=O)[C@H](Cc2ccccc2)N(C)C(=O)[C@H](C)N(C)C(=O)[C@H](C(C)C)NC(=O)[C@H](Cc2ccc(-c3ccccc3)cc2)NC(=O)[C@H](C(C)C)NC(=O)[C@H](Cc2c[nH]c3ccccc23)NC(=O)[C@H](CC(=O)O)NC(=O)[C@H](Cc2ccc(O)cc2)NC(=O)[C@H](Cc2ccccc2)NC(=O)CSC[C@@H](C(=O)N[C@@H](C)C(N)=O)NC(=O)[C@H](CO)NC(=O)[C@H](C(C)C)NC1=O [Example 1115] ({CH2CO}-FYDWV[Bip]V[NMeA][NMeF]RLVSCA-NH2; thioether N-14)
400 nM	CC(C)C[C@@H]1NC(=O)[C@H](Cc2cccc3ccccc23)NC(=O)[C@H](CC(=O)O)NC(=O)[C@H](Cc2ccc(O)cc2)NC(=O)[C@H](Cc2ccccc2)NC(=O)CSC[C@@H](C(=O)N[C@@H](C)C(N)=O)NC(=O)[C@H](CO)NC(=O)[C@H](C(C)C)NC(=O)[C@H](CC(C)C)NC(=O)[C@H](CC(N)=O)NC(=O)CN(C)C(=O)[C@H](C)N(C)C(=O)[C@H](C(C)C)NC(=O)[C@H](Cc2ccc(-c3ccccc3)cc2)NC1=O [Example 1116] ({CH2CO}-FYD[1Nal]L[Bip]V[NMeA][Sar]NLVSCA-NH2; thioether N-14)
410 nM	CC(C)C[C@@H]1NC(=O)[C@H](Cc2c[nH]c3ccccc23)NC(=O)[C@H](CC(=O)O)NC(=O)[C@H](Cc2ccc(O)cc2)NC(=O)[C@H](CC2CCCCC2)NC(=O)CSC[C@@H](C(=O)NCC(N)=O)NC(=O)[C@H](CO)NC(=O)[C@H](C(C)C)NC(=O)[C@H](CC(C)C)NC(=O)[C@H](CC(N)=O)NC(=O)CN(C)C(=O)[C@H](C)N(C)C(=O)[C@H](C(C)C)NC(=O)[C@H](Cc2ccc(-c3ccccc3)cc2)NC1=O [Example 1117] ({CH2CO}-[Cha]YDWL[Bip]V[NMeA][Sar]NLVSCG-NH2; thioether N-14)
420 nM	CC(C)C[C@@H]1NC(=O)[C@H](Cc2c[nH]c3ccccc23)NC(=O)[C@H](CC(=O)O)NC(=O)[C@H](Cc2ccc(O)cc2)NC(=O)[C@H](Cc2cccnc2)NC(=O)CSC[C@@H](C(=O)NCC(N)=O)NC(=O)[C@H](CO)NC(=O)[C@H](C(C)C)NC(=O)[C@H](CC(C)C)NC(=O)[C@H](CC(N)=O)NC(=O)CN(C)C(=O)[C@H](C)N(C)C(=O)[C@H](C(C)C)NC(=O)[C@H](Cc2ccc(-c3ccccc3)cc2)NC1=O [Example 1118] ({CH2CO}-[3Pal]YDWL[Bip]V[NMeA][Sar]NLVSCG-NH2; thioether N-14)
420 nM	CC(C)C[C@@H]1NC(=O)[C@H](Cc2c[nH]c3ccccc23)NC(=O)[C@H](CC(=O)O)NC(=O)[C@H](Cc2ccc(O)cc2)NC(=O)[C@H](Cc2ccccc2)NC(=O)CSC[C@@H](C(=O)N[C@@H](C)C(N)=O)NC(=O)[C@H](CO)NC(=O)[C@H](C(C)C)NC(=O)[C@H](CC(C)C)NC(=O)[C@H](CC(N)=O)NC(=O)CN(C)C(=O)[C@H](C)N(C)C(=O)[C@H](CCC(=O)O)NC(=O)[C@H](Cc2ccc(-c3ccccc3)cc2)NC1=O [Example 1119] ({CH2CO}-FYDWL[Bip]E[NMeA][Sar]NLVSCA-NH2; thioether N-14)
430 nM	CC(C)C[C@@H]1NC(=O)[C@H](Cc2c[nH]c3ccccc23)NC(=O)[C@H](CC(=O)O)NC(=O)[C@H](Cc2ccc(O)cc2)NC(=O)[C@H](Cc2ccccc2)NC(=O)CSC[C@@H](C(=O)NCC(N)=O)NC(=O)[C@H](CO)NC(=O)[C@H](C(C)C)NC(=O)[C@H](CC(C)C)NC(=O)[C@H](CC(N)=O)NC(=O)[C@H](C)N(C)C(=O)[C@H](C)N(C)C(=O)[C@H](C(C)C)NC(=O)[C@H](Cc2ccc(-c3ccccc3)cc2)NC1=O [Example 1120] ({CH2CO}-FYDWL[Bip]V[NMeA][NMeA]NLVSCG-NH2; thioether N-14)
430 nM	CCCC[C@@H]1NC(=O)[C@H](CC(N)=O)NC(=O)[C@H]2CCCN2C(=O)[C@H](C)N(C)C(=O)[C@H](C(C)C)NC(=O)[C@H](Cc2ccc(-c3ccccc3)cc2)NC(=O)[C@H](CC(C)C)NC(=O)[C@H](Cc2c[nH]c3ccccc23)NC(=O)[C@H](CC(=O)O)NC(=O)[C@H](Cc2ccc(O)cc2)NC(=O)[C@H](Cc2ccccc2)NC(=O)CSC[C@@H](C(=O)N[C@@H](C)C(N)=O)NC(=O)[C@H]([C@@H](C)O)NC(=O)[C@H](CCCNC(=N)N)NC1=O [Example 1121] ({CH2CO}-FYDWL[Bip]V[NMeA][dP]N[Nle]RTCA-NH2; thioether N-14)
430 nM	CC(C)C[C@@H]1NC(=O)[C@H](CCCNC(=N)N)NC(=O)[C@H]2CCCN2C(=O)[C@H](C)N(C)C(=O)[C@H](CCCNC(=N)N)NC(=O)[C@H](Cc2ccc(-c3ccccc3)cc2)NC(=O)[C@H](C(C)C)NC(=O)[C@H](Cc2c[nH]c3ccccc23)NC(=O)[C@H](CC(=O)O)NC(=O)[C@H](Cc2ccc(O)cc2)NC(=O)[C@H](Cc2ccccc2)NC(=O)CSC[C@@H](C(=O)N[C@@H](C)C(N)=O)NC(=O)[C@H](CO)NC(=O)[C@H](C(C)C)NC1=O [Example 1122] ({CH2CO}-FYDWV[Bip]R[NMeA][dP]RLVSCA-NH2; thioether N-14)
440 nM	COC[C@@H]1NC(=O)[C@H](C(C)C)NC(=O)[C@H](CC(C)C)NC(=O)[C@H](CC(N)=O)NC(=O)CN(C)C(=O)[C@H](C)N(C)C(=O)[C@H](C(C)C)NC(=O)[C@H](Cc2ccc(-c3ccccc3)cc2)NC(=O)[C@H](CC(C)C)NC(=O)[C@H](Cc2c[nH]c3ccccc23)NC(=O)[C@H](CC(=O)O)NC(=O)[C@H](Cc2ccc(O)cc2)NC(=O)[C@H](Cc2ccccc2)NC(=O)CSC[C@@H](C(=O)N[C@@H](C)C(N)=O)NC1=O [Example 1123] ({CH2CO}-FYDWL[Bip]V[NMeA][Sar]NLVS(Me)CA-NH2; thioether N-14)
450 nM	CC(C)C[C@@H]1NC(=O)[C@H](Cc2cccc3[nH]ccc23)NC(=O)[C@H](CC(=O)O)NC(=O)[C@H](Cc2ccc(O)cc2)NC(=O)[C@H](Cc2ccccc2)NC(=O)CSC[C@@H](C(=O)N[C@@H](C)C(N)=O)NC(=O)[C@H](CO)NC(=O)[C@H](C(C)C)NC(=O)[C@H](CC(C)C)NC(=O)[C@H](CC(N)=O)NC(=O)CN(C)C(=O)[C@H](C)N(C)C(=O)[C@H](C(C)C)NC(=O)[C@H](Cc2ccc(-c3ccccc3)cc2)NC1=O [Example 1124] ({CH2CO}-FYD[Ala(indol-4-yl)]L[Bip]V[NMeA][Sar]NLVSCA-NH2; thioether N-14)
470 nM	Cc1ccccc1-c1ccc(C[C@@H]2NC(=O)[C@H](CC(C)C)NC(=O)[C@H](Cc3c[nH]c4ccccc34)NC(=O)[C@H](CC(=O)O)NC(=O)[C@H](Cc3ccc(O)cc3)NC(=O)[C@H](Cc3ccccc3)NC(=O)CSC[C@@H](C(=O)N[C@@H](C)C(N)=O)NC(=O)[C@H](CO)NC(=O)[C@H](C(C)C)NC(=O)[C@H](CC(C)C)NC(=O)[C@H](CC(N)=O)NC(=O)CN(C)C(=O)[C@H](C)N(C)C(=O)[C@H](C(C)C)NC2=O)cc1 [Example 1125] ({CH2CO}-FYDWL[Bip(2'-Me)]V[NMeA][Sar]NLVSCA-NH2; thioether N-14)
480 nM	CC(C)C[C@@H]1NC(=O)[C@H](Cc2c[nH]c3ccccc23)NC(=O)[C@H](CC(=O)O)NC(=O)[C@H](Cc2ccc(O)cc2)NC(=O)[C@H](Cc2ccccc2)NC(=O)CSC[C@@H](C(=O)N[C@@H](C)C(N)=O)NC(=O)[C@H](CO)NC(=O)[C@H](C(C)C)NC(=O)[C@H](CC(C)C)NC(=O)[C@H](CC(N)=O)NC(=O)[C@H]2C[C@@H](O)CN2C(=O)[C@H](C)N(C)C(=O)[C@H](C(C)C)NC(=O)[C@H](Cc2ccc(-c3ccccc3)cc2)NC1=O [Example 1126] ({CH2CO}-FYDWL[Bip]V[NMeA][d(cisHyp)]NLVSCA-NH2; thioether N-14)
480 nM	CC(C)C[C@@H]1NC(=O)[C@H](Cc2c[nH]c3ccccc23)NC(=O)[C@H](CC(=O)O)NC(=O)[C@H](Cc2ccc(O)cc2)NC(=O)[C@H](Cc2ccccc2)NC(=O)CSC[C@@H](C(=O)N[C@@H](C)C(N)=O)NC(=O)[C@H](Cc2cnc[nH]2)NC(=O)[C@H](C(C)C)NC(=O)[C@H](CC(C)C)NC(=O)[C@H](CC(N)=O)NC(=O)CN(C)C(=O)[C@H](C)N(C)C(=O)[C@H](C(C)C)NC(=O)[C@H](Cc2ccc(-c3ccccc3)cc2)NC1=O [Example 1127] ({CH2CO}-FYDWL[Bip]V[NMeA][Sar]NLVHCA-NH2; thioether N-14)
